From the supplement of paper PMC10307832

How the values were obtained:
Experiment in all cases: relative viability (nuclei count vs DMSO), 5 days (fraction); higher = more cells survive
[1] = compound: CC1=CC=C(C=C1)C(=O)CN2C3=C(CCCC3)SC2=N [Pifithrin_alpha] + N=C(N)NC(=N)NCCc1ccccc1 [Phenformin] (partner 250 µM)
Procedure, shortened: (§1)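 Lung cancer cell lines were seeded in 1536-well plates and dosed by pin tool the next day, with either a single drug or a fixed anchor-drug dose combined with five library-drug doses (not always all listed) spaced in √10 steps. Five days later, one step fixed the cells and stained their nuclei (final 0.05% Triton X-100, 1% formaldehyde, 1 ug/ml Hoechst), and nuclei were counted on 4× images. Relative viability is the nuclei count in treated wells divided by the count in vehicle wells, and each value is the median of duplicate plates.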

[2] = compound: CC1=CC=C(C=C1)C(=O)CN2C3=C(CCCC3)SC2=N [Pifithrin_alpha] + Nc1ncn([C@H]2C[C@H](O)[C@@H](CO)O2)c(=O)n1 [Decitabine] (partner 2 µM)
Procedure, shortened: as §1

[3] = compound: CNC(=O)c1ccccc1Sc1ccc2c(/C=C/c3ccccn3)n[nH]c2c1 [Axitinib] + Cc1nc(NC(=O)N2CCC[C@H]2C(N)=O)sc1-c1ccnc(C(C)(C)C(F)(F)F)c1 [Alpelisib] (partner 2 µM)
Procedure, shortened: as §1

[4] = compound: Nc1nc(Nc2ccc3c(c2)CC[C@@H](N2CCCC2)CC3)nn1-c1cc2c(nn1)-c1ccccc1CCC2 [Bemcentinib] + CS(=O)(=O)CCNCc1ccc(-c2ccc3ncnc(Nc4ccc(OCc5cccc(F)c5)c(Cl)c4)c3c2)o1 [Lapatinib] (partner 2 µM)
Procedure, shortened: as §1

Cell Line | relative viability ([1]; first compound 1 µM) | relative viability ([1]; first compound 3.162 µM) | relative viability ([1]; first compound 10 µM) | relative viability ([1]; first compound 31.62 µM) | relative viability ([1]; first compound 100 µM) | relative viability ([2]; first compound 3.162 µM) | relative viability ([2]; first compound 31.62 µM) | relative viability ([2]; first compound 100 µM) | relative viability ([3]; first compound 0.005 µM) | relative viability ([3]; first compound 0.05 µM) | relative viability ([3]; first compound 0.1581 µM) | relative viability ([3]; first compound 0.5 µM) | relative viability ([4]; first compound 0.04 µM) | relative viability ([4]; first compound 0.1265 µM) | relative viability ([4]; first compound 0.4 µM) | relative viability ([4]; first compound 1.265 µM) | relative viability ([4]; first compound 4 µM) | relative viability ([2]; first compound 1 µM) | relative viability ([2]; first compound 10 µM) | relative viability ([3]; first compound 0.01581 µM)
PC-3 [JPC-3] | 0.497 | 0.482 | 0.409 | 0.47 | 0.488 | 0.742 | 0.714 | 0.642 | 1.09 | 1 | 1.04 | 1.12 | 0.455 | 0.495 | 0.421 | 0.425 | 0.471 | – | – | –
HCC-366 | 0.662 | 0.658 | 0.618 | – | 0.533 | 0.326 | – | 0.297 | 0.616 | 0.505 | 0.387 | 0.619 | 0.994 | 1.16 | 1.51 | 1.06 | 1.03 | 0.308 | 0.403 | 0.482
NCI-H2405 | 0.371 | 0.504 | 0.481 | 0.463 | 0.479 | 0.678 | 0.592 | 0.668 | 0.854 | 0.854 | 0.877 | 0.849 | 0.86 | 1.16 | 1.05 | 1.1 | 1.03 | – | 0.708 | 0.847
LU99A | 0.817 | 0.809 | 0.904 | 0.406 | 0.763 | 0.919 | – | 0.863 | 0.492 | 0.533 | 0.515 | 0.522 | 0.961 | 1.26 | 1.15 | 0.961 | 0.893 | 0.834 | 1.04 | 0.498
LCLC-97TM1 | 0.46 | 0.479 | 0.459 | 0.435 | 0.475 | 0.272 | – | 0.121 | 0.252 | 0.237 | 0.205 | 0.247 | 0.777 | 1.11 | – | 1.12 | 0.941 | – | 0.235 | 0.285
A-427 | 0.318 | 0.305 | 0.245 | 0.235 | 0.264 | 0.582 | 0.485 | 0.531 | 1.05 | 1.08 | 1.05 | 1.09 | – | 0.959 | 1.06 | 1.09 | 1.03 | 0.485 | 0.543 | 1.1
EMC-BAC-2 | 0.504 | 0.511 | 0.478 | – | 0.556 | 0.95 | 0.84 | 0.972 | 0.788 | 0.742 | 0.749 | 0.808 | 0.917 | 0.959 | 0.957 | 0.878 | 0.898 | – | – | 0.702
NCI-H2228 | 0.312 | 0.265 | 0.374 | 0.256 | 0.205 | – | – | – | 0.884 | 0.798 | 0.677 | 0.964 | – | 1.39 | 1.18 | 1.08 | 1.18 | – | – | 0.699
IA-LM | – | – | – | – | – | – | – | – | 0.79 | 0.733 | 0.761 | 0.619 | 0.661 | 0.814 | 1.13 | 0.832 | 0.775 | – | – | 0.883
NCI-H838 | 0.548 | 0.514 | 0.554 | 0.412 | 0.444 | 0.473 | 0.387 | 0.389 | 1.12 | 1.05 | 1 | 1.18 | 1.06 | 1.16 | 0.914 | 0.967 | 1.26 | 0.427 | 0.441 | 1
COR-L 105 | 0.525 | 0.484 | 0.55 | 0.436 | 0.403 | 0.622 | 0.646 | 0.581 | 1.08 | 1.02 | 0.932 | 1.18 | 0.311 | 0.327 | 0.416 | 0.338 | 0.394 | 0.652 | 0.62 | 1.2
NCI-H358 | 0.353 | 0.389 | 0.357 | 0.272 | 0.344 | 0.205 | 0.217 | 0.16 | 1.03 | 0.806 | 0.738 | 1.05 | 0.496 | 0.415 | 0.373 | 0.531 | 0.464 | 0.206 | 0.19 | 0.898
SK-MES-1 | 0.571 | 0.67 | 0.659 | 0.474 | 0.571 | 0.424 | 0.411 | 0.352 | 0.981 | 1.04 | 0.943 | 1.12 | 0.437 | 0.447 | 0.431 | 0.482 | 0.511 | 0.351 | 0.353 | 0.974
LCLC-103H | 0.336 | 0.313 | 0.373 | 0.355 | 0.375 | 0.7 | 0.636 | 0.65 | 0.987 | 0.845 | 0.621 | 0.999 | – | – | – | – | – | 0.659 | 0.708 | 0.922
HARA | – | 0.441 | 0.409 | – | 0.407 | 0.622 | 0.514 | 0.472 | 0.877 | 0.975 | 0.824 | 1.02 | 0.668 | 0.928 | 0.788 | 0.865 | 0.469 | 0.474 | 0.628 | 0.909
ABC-1 | 0.251 | 0.218 | 0.227 | 0.255 | 0.227 | 1.02 | 1 | 0.803 | 1.16 | 0.945 | 1.07 | 1.54 | 1.33 | 1.36 | 1.33 | 0.998 | 1.26 | – | 1.03 | 1.06
NCI-H727 | 0.604 | 0.572 | 0.538 | – | 0.501 | 0.782 | 0.731 | 0.749 | 0.612 | 1.43 | 0.538 | 0.783 | 0.713 | 0.875 | 0.877 | 0.864 | 1.01 | 0.328 | 0.835 | 0.524
